Data as given in patent US8674097B2, “Quinoxalinedione derivatives useful as activators of AMPK-activated protein kinase” (Merck Patent GmbH, priority 2008, dated 2014).

Tests used:
ob/ob and db/db mice = conditions: 8 day AICAR administration; cited from earlier work
[1] = target: T1, AMPK protein (recombinant α1β1γ2) (Homo sapiens, UniProt Q13131+Q9UGJ0+Q9Y478); test: AMPK enzymatic activity (Delfia, AMARA peptide); assay type: biochemical; conditions: compound 30 μM vs AMP 30 μM; 125 μM ATP; direct activator if ratio is 90% or higher
T1 construct: made in house; host or cells: E. coli
Experimental: The following biological test allows the determination of the efficacy of such compounds of formula (I) onto AMPK protein (recombinant α1β1γ2).
Human recombinant AMPK enzyme was expressed in E. Coli and was reactivated in vitro by LKB1 prior to enzyme activity determination. AMPK enzyme activities were assayed by using A Delfia technology. AMPK enzyme activities were carried out in microtiter plates (50 mM Hepes buffer, pH 7.4 with 125 μM ATP respectively) in the presence of a synthetic peptide substrate (AMARAASAAALARRR, the “AMARA” peptide) and activators in serial dilutions. Reactions were initiated by the addition of AMPK (50-100 ng). Following mixing, the plates were incubated for 30 min at room temperature. Enzyme activity was assayed by using an anti-phosphoserine antibody to measure the quantity of phosphate incorporated into the AMARAA.
Ratio between the % of control (basal activity) of compound of formula (I) at 30 μM and the % of control (basal activity) of AMP (natural […]) at 30 μM.
Compounds of formula (I) are considered as direct activator of AMPK if the ratio is 90% or higher.

T1 sequence (Q13131 whole entry): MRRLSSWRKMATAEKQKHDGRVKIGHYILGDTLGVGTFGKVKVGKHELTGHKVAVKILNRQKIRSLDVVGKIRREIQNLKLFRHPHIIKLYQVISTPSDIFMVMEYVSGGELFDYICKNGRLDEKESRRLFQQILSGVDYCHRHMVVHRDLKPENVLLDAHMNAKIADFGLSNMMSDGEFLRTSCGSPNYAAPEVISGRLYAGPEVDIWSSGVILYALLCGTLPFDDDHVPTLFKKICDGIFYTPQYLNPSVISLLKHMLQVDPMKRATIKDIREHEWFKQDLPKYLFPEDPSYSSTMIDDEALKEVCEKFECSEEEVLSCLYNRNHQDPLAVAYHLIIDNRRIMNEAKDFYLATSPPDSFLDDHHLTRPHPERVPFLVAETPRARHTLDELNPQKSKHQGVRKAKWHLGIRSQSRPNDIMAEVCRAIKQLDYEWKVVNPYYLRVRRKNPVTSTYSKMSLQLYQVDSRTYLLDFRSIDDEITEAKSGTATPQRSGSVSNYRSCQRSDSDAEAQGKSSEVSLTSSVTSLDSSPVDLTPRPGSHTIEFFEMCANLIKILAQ
T1 sequence (Q9Y478 whole entry): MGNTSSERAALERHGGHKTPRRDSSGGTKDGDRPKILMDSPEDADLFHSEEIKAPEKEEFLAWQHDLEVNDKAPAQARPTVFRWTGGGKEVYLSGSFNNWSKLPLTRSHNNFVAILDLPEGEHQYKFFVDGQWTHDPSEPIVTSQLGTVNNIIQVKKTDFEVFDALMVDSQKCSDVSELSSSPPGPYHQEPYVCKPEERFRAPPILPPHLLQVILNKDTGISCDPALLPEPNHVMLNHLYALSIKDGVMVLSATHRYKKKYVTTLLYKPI
T1 sequence (Q9UGJ0 whole entry): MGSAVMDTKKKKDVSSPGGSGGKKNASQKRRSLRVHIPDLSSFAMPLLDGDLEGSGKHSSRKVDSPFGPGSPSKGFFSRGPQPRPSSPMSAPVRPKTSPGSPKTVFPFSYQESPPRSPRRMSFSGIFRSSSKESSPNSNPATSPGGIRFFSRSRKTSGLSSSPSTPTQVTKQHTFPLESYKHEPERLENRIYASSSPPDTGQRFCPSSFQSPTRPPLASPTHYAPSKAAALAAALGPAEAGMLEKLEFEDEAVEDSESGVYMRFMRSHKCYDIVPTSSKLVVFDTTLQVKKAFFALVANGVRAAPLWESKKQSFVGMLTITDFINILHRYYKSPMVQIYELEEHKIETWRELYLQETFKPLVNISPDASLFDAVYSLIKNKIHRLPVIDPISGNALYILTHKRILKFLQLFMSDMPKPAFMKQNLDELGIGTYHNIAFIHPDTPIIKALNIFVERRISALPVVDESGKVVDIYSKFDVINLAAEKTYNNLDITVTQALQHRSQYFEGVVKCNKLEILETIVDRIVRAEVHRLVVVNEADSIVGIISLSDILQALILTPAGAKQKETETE

Row | Compound | reduction of blood glucose (ob/ob and db/db mice) | Activity: ratio between the % of control (basal activity) of compound at 30 μM and the % of control (basal activity) of AMP at 30 μM [1]
1 | NC(=O)c1ncn([C@@H]2O[C@H](CO)[C@@H](O)[C@H]2O)c1N [AICAR] | 35% | 
2 | CC(=O)Oc1cccc2[nH]c(=O)c(=O)[nH]c12 [Acetic acid 2,3-dioxo-1,2,3,4-tetrahydro-quinoxalin-5-yl ester] |  | 120%
3 | O=c1[nH]c2cccc(O)c2[nH]c1=O [5-hydroxy-1,4-dihydroquinoxaline-2,3-dione] |  | 130%
